Assay results reported in publication PMC9021288 (Nature Communications, 2022).
Converted amounts (≈) assume the structure as drawn. “And” between values parts separate entries of the source, which are not always exact repeats. Identical values can stand only once. “Also recorded” adds a separate entry of the source.

Assays:
[1] = Plasma protein binding, human
AcAS (PF3D7_0627800) = test: Cellular thermal shift assay on parasite lysate; assay type: binding, Plasmodium falciparum; conditions: 1 µM; for AcAS band intensity normalized to DMSO at 37 °C: listed as iPanAm
Method: A cellular thermal shift assay (CETSA) was performed on infected RBCs or parasite lysates as described previously.
For a CETSA on parasite lysates, synchronized trophozoite cultures (ACS11-tagged parasites) were treated with 0.1% saponin to lyse the RBCs, and washed three times in PBS. Subsequently, parasite pellets were resuspended in 1× lysis buffer and subjected to three flash-freeze-thaw cycles using liquid nitrogen, followed by mechanical shearing using a syringe with a 25 G and a 30 G needle. Samples were spun down at 18,000 g for 20 min at 4 °C. The supernatant was diluted to 2.1 mg/ml protein concentration, and 100 µl was added to each PCR tube containing 1 µl of the compound at a 100× concentration (final concentration of 1 µM). Samples were incubated for 30 min at room temperature, subjected to a thermal gradient for 3 min on a pre-heated PCR machine, followed by 4 °C for 3 min. Samples were spun down at 18,000 g for 20 min at 4 °C and the soluble fraction was flash-frozen in liquid nitrogen and stored at −80 °C.
Samples were loaded on an 8% SDS-Page gel (Genscript) with 4×10^6 infected RBCs or 50 µg protein for the parasite lysate approach. Proteins were transferred to a nitrocellulose membrane that was blocked with 5% skim milk (Sigma) in PBS overnight and incubated with rabbit antiserum against AcAS (1:1000) for 1 h. Subsequently, membranes were washed three times with PBS-Tween for 5 min, followed by incubation with secondary horseradish peroxide (HRP)-conjugated goat anti-rabbit antibodies (Dako P0448, 1:1000) for 1 h. Blots were then washed three times with PBS-Tween for 5 min and twice with PBS. Following a 5-min incubation with Clarity Max Western ECL Substrate (BioRad), protein blots were imaged using the ImageQuant LAS4000 (GE Healthcare). The band intensity was quantified using Fiji software.

[2] = Pharmacokinetics in dogs (cassette dosing); assay type: in vivo, Beagle dogs
Method: Subsequently, samples were spun down at 1640 g for 5-10 min at 4 °C within 30 min after collection and plasma was collected. […] Urine was collected following an intravenous dose in both rat and dog, allowing renal clearance to be estimated. Human renal clearance was estimated from dog renal clearance as previously described[40] and other human PK parameters were predicted using allometric scaling and/or in vitro clearance data. PK parameters were calculated by naïve pooled approach using WinNonLin software (Phoenix, version 6.3).

[3] = test system: human G6PD-A-deficient RBCs; test: Hemolytic toxicity in NSG mice engrafted with G6PD-deficient human RBCs; conditions: for Hematocrit / Spleen weight: individual mice
Method: Hemolytic toxicity was determined in female NSG mice (Jackson Laboratories) using erythrocytes from a G6PD-A-deficient blood donor (0.4 u/g hemoglobin).

rat primary hepatocytes = test: Hepatocyte stability, rat; assay type: in vitro ADME
[4] = test system: P. falciparum Pf3D7^0087/N9 and Pf3D7^20161128TAD17N214; test: PKPD efficacy studies in humanized NSG mice and PD model; assay type: in vivo, Plasmodium falciparum
Method: The experimental designs are summarized in Supplementary Table 30. […] Samples were processed under liquid-liquid extraction methods and analyzed by LC-MS/MS for quantitation in a Waters UPLC-TQD (Micromass, Manchester, UK).
Data preparation, exploration and model pre- and postprocessing were performed using R (version 3.6.3) and R package IQRtools (version 1.2.1 IntiQuan GmbH). Non-linear mixed-effects (NLME) modeling was used to estimate the PK and PD parameters using Monolix (Lixoft version MLX2018R2). The population PKPD model was developed with a two-stage approach: first, a population PK model was determined; then, the individual PK parameters were used as regression parameters and the PD parameters were estimated. The PD model consists of the balance between a parasite net growth rate and a drug killing rate. […] The growth rate of log-transformed parasite concentration was fixed at 0.03 /h based on prior experiments but estimating growth rate interindividual variability. Different Hill coefficients were tested.

[5] = 10 mg/kg group, day 0, individual mice
[6] = 10 mg/kg group, day 4, individual mice
[7] = 10 mg/kg group, day 7, individual mice
[8] = 25 mg/kg group, day 0, individual mice
[9] = 25 mg/kg group, day 4, individual mice
[10] = 25 mg/kg group, day 7, individual mice
[11] = 50 mg/kg group, day 0, individual mice
[12] = 50 mg/kg group, day 4, individual mice
[13] = 50 mg/kg group, day 7, individual mice

In the case of `C[C@@H](CNC(=O)[C@H](O)C(C)(C)CO)NC(=O)c1cc(F)c(F)cc1F` [MMV693183], the plasma protein binding [1] is reported as 52%, the “AcAS band intensity normalized to DMSO at 37 °C” value (from here on “AcAS band intensity normalized”) (AcAS (PF3D7_0627800); 37 °C) is reported as 134.836 and the “AcAS band intensity normalized” value (AcAS (PF3D7_0627800); 42 °C) is reported as 174.374. For the same molecule, the “AcAS band intensity normalized” value (AcAS (PF3D7_0627800); 47 °C) was 76.9786, the “AcAS band intensity normalized” value (AcAS (PF3D7_0627800); 52 °C) was 24.7861 and the AcAS thermal stability (AcAS (PF3D7_0627800); 30 min, parasite lysate) was “neither the parent compound MMV693183 nor its derivative 4’P-MMV693183 affected AcAS stability”. The “Observed hepatic/ predicted hepatic” value ([2]; Dog) was 0.95, the “Observed total-renal = observed hepatic” value ([2]; Dog) was 10.5 mL/min/kg and the “Predicted hepatic plasma clearance” value ([2]; Dog) was 11.1 mL/min/kg. For the same molecule, the Norm. conc i.v. ([2]; Dog, Time (hrs) 0.083333) was 1180 ng/mL and 892 ng/mL and 1160 ng/mL, the Norm. conc i.v. ([2]; Dog, Time (hrs) 0.25) was 732 ng/mL and 660 ng/mL and 906 ng/mL and the Norm. conc i.v. ([2]; Dog, Time (hrs) 0.5) was 414 ng/mL and 439 ng/mL and 345 ng/mL. The Norm. conc i.v. ([2]; Dog, Time (hrs) 1) was 166 ng/mL and 228 ng/mL and 178 ng/mL, the Norm. conc i.v. ([2]; Dog, Time (hrs) 2) was 52.9 ng/mL and 68.5 ng/mL and 55.6 ng/mL and the Norm. conc i.v. ([2]; Dog, Time (hrs) 4) was 28.7 ng/mL and 29.7 ng/mL and 29.8 ng/mL. For the same molecule, the Norm. conc i.v. ([2]; Dog, Time (hrs) 8) was 14.6 ng/mL and 21.2 ng/mL and 17.8 ng/mL, the Norm. conc i.v. ([2]; Dog, Time (hrs) 24) was 2 ng/mL and 3.19 ng/mL and 2.05 ng/mL and the Norm. conc p.o. ([2]; Dog, Time (hrs) 0.25) was 815 ng/mL and 580 ng/mL and 439 ng/mL. The Norm. conc p.o. ([2]; Dog, Time (hrs) 0.5) was 485 ng/mL and 365 ng/mL and 280.5 ng/mL, the Norm. conc p.o. ([2]; Dog, Time (hrs) 1) was 132.5 ng/mL and 118.5 ng/mL and 171.5 ng/mL and the Norm. conc p.o. ([2]; Dog, Time (hrs) 2) was 29.9 ng/mL and 28.05 ng/mL and 47.05 ng/mL. For the same molecule, the Norm. conc p.o. ([2]; Dog, Time (hrs) 4) was 15.6 ng/mL and 14.15 ng/mL and 21.05 ng/mL, the Norm. conc p.o. ([2]; Dog, Time (hrs) 24) was 1 ng/mL and 1.115 ng/mL and the “AUC0-∞” value ([2]; i.v. 1 mg/kg, mean) was 1451 ng·h/mL. It also gave an AUClast ([2]; i.v. 1 mg/kg, mean) of 1423 ng·h/mL, a Cmax ([2]; i.v. 1 mg/kg, mean) of 1077 ng/mL and a Vss_obs ([2]; i.v. 1 mg/kg, mean) of 1.79 L/kg. For the same molecule, the CLtotal ([2]; i.v. 1 mg/kg, mean, 1 mg/kg) was 11.5 mL/min/kg and 11.52 mL/min/kg, the T1/2 ([2]; i.v. 1 mg/kg, mean, 1 mg/kg) was 4.2 h and 4.23 h and the “AUC0-∞” value ([2]; p.o. 2 mg/kg, mean) was 1902 ng·h/mL. It also gave an AUClast ([2]; p.o. 2 mg/kg, mean) of 1844 ng·h/mL, a Cmax ([2]; p.o. 2 mg/kg, mean) of 1286 ng/mL and a T1/2 ([2]; p.o. 2 mg/kg, mean) of 2.93 h. The F ([2]; p.o. 2 mg/kg, mean, 2 mg/kg) was 64% and 63.7%, the Tmax ([2]; p.o. 2 mg/kg, mean, 2 mg/kg) was 0.333 h and the “Human RBCs” value [3, 5] was 72.9% and 76.8% and 80.6% and 72.4%. For the same molecule, the Reticulocytes [3, 5] was 0.38% and 0.65% and 0.32% and 0.87%, the “Human RBCs” value [3, 6] was 67.9% and 72.1% and 75.9% and 68.6% and the Reticulocytes [3, 6] was 0.35% and 0.44% and 0.25% and 0.57%. For the same molecule, the “Human RBCs” value [3, 7] was 59.6% and 65.8% and 72.2% and 63.3%, the Reticulocytes [3, 7] was 0.17% and 0.14% (2×) and 0.35% and the Hematocrit ([3]; 10 mg/kg group) was 53.45% and 54.69% and 60.66% and 56.45%. The Spleen weight ([3]; 10 mg/kg group) was 0.305 % of body weight and 0.306 % of body weight and 0.265 % of body weight and 0.369 % of body weight, the “Human RBCs” value [3, 8] was 78.9% and 75.9% and 78.6% and 71.6% and 75.5% and the Reticulocytes [3, 8] was 0.53% and 0.42% and 0.37% and 0.39% and 0.51%. The “Human RBCs” value [3, 9] was 77.9% and 71.9% and 76% and 64.1% and 70.3%, the Reticulocytes [3, 9] was 0.24% (2×) and 0.32% and 0.61% and 0.43% and the “Human RBCs” value [3, 10] was 77.4% and 67.8% and 68% and 58.3% and 68.8%. For the same molecule, the Reticulocytes [3, 10] was 0.16% and 0.23% and 0.17% and 0.22% and 0.15%, the Hematocrit ([3]; 25 mg/kg group) was 61.54% and 73.81% and 62.16% and 56.36% and 57.35% and the Spleen weight ([3]; 25 mg/kg group) was 0.362 % of body weight and 0.462 % of body weight and 0.396 % of body weight and 0.366 % of body weight and 0.21 % of body weight. The “Human RBCs” value [3, 11] was 75.4% (2×) and 77.9% and 80.2% and 74.5%, the Reticulocytes [3, 11] was 0.4% and 0.55% and 0.42% and 0.47% and 0.58% and the “Human RBCs” value [3, 12] was 72.3% and 72.5% and 71.7% and 73.2% and 70.5%. The Reticulocytes [3, 12] was 0.27% and 0.41% and 0.23% and 0.34% and 0.49%, the “Human RBCs” value [3, 13] was 65.4% and 71.3% and 68.2% and 66% and 66.7% and the Reticulocytes [3, 13] was 0.2% (2×) and 0.1% (2×) and 0.3%. The Hematocrit ([3]; 50 mg/kg group) was 60.66% and 63.64% and 71.67% and 53.85% and 57.63%, the Spleen weight ([3]; 50 mg/kg group) was 0.357 % of body weight and 0.427 % of body weight and 0.135 % of body weight and 0.294 % of body weight and 0.382 % of body weight and the hemolytic toxicity ([3]; 10, 25, 50 mg/kg for four days) was “Absence of detectable hemolytic toxicity; also recorded: did not show signs of hemolytic toxicity”. For the same molecule, the “Compound Remaining (% of 0 min)” value (rat primary hepatocytes; 0 min) was 100%, the “Compound Remaining (% of 0 min)” value (rat primary hepatocytes; 5 min) was 96.2% and the “Compound Remaining (% of 0 min)” value (rat primary hepatocytes; 10 min) was 97.1%. The “Compound Remaining (% of 0 min)” value (rat primary hepatocytes; 20 min) was 97.8%, the “Compound Remaining (% of 0 min)” value (rat primary hepatocytes; 40 min) was 92.7% and the “Compound Remaining (% of 0 min)” value (rat primary hepatocytes; 60 min) was 89.2%. For the same molecule, the “EC50, concentration achieving 50percent of maximum effect” value ([4]; PD model estimate) was 11.5 ng/mL, the MIC ([4]; PKPD model) was 3.2 ng/mL (≈ 8.83 nM) and the MPC90 ([4]; PKPD model) was 38.4 ng/mL. The ED90 ([4]; in vivo) was 4.4 mg/kg and the “time at which 3D7 parasites were cleared” value ([4]; single-dose groups) was 4 to 6 days.
